Literature values as cited in US20150030666A1, “ADHESIVE SKIN PATCH” (KM TRANSDERM LTD., priority 2011, published 2015).

Settings: in vivo, po

O=C(O[C@H]1CN2CCC1CC2)N1CCc2ccccc2[C@@H]1c1ccccc1 [solifenacin succinate, (3R)-1-azabicyclo[2.2.2]oct-3-yl(1S)-1-phenyl-3,4-dihydroisoquinoline-2(1H)-carboxylate]
half-life in blood: about 50 hr
